Columns and labels:
Assay type in all cases: in vivo
[1] = test system: Echinochloa crus-galli (ECHCG); assay: A. Herbicidal pre-emergence efficacy, ECHCG; settings: scored visually after about 3 weeks vs untreated controls
Outline: (§1)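 Pre-emergence soil-surface spray in sandy loam pots, WP/EC in water plus 0.5% additive, 600 L/ha. Visual % damage rating after about 3 weeks in greenhouse vs. untreated; 0% = control-like, 100% = dead plants. Rates up to 1280 g/ha.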

[2] = test system: Matricaria inodora (MATIN); assay: A. Herbicidal pre-emergence efficacy, MATIN
Outline: as §1

[3] = test system: Alopecurus myosuroides (ALOMY); assay: B. Herbicidal post-emergence efficacy, ALOMY; settings: rated visually after about 3 weeks
Protocol: (§2) Seeds of mono- and dicotyledonous weed plants were placed in plastic pots in sandy loam soil (doubly sown with in each case one species of mono- or dicotyledonous weed plants per pot), covered with soil and cultivated in a greenhouse under controlled growth conditions. 2 to 3 weeks after sowing, the test plants were treated at the one-leaf stage. The compounds of the invention, formulated in the form of wettable powders (WP) or as emulsion concentrates (EC), were applied onto the green parts of the plants as aqueous suspension or emulsion with addition of 0.5% additive at a water application rate of 600 liters per hectare (converted). After the test plants had been kept in the greenhouse under optimum growth conditions for about 3 weeks, the activity of the preparations was rated visually in comparison to untreated controls.
(§3) For example, • 100% efficacy=plants have died, • 0% efficacy=like untreated control plants
(§4) Tables B1a to B12c below show the effects of selected inventive compounds of the general formula (I) according to table 1 on various harmful plants at an application rate corresponding to 1280 g/ha or less, which were obtained by the experimental procedure mentioned above.

Lolium rigidum (LOLRI) = assay: B. Herbicidal post-emergence efficacy, LOLRI
Protocol: as §2, §3, §4

[4] = test system: Matricaria inodora (MATIN); assay: C. Herbicidal pre-emergence efficacy, MATIN; settings: scored after about 3 weeks
Outline: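 Pre-emergence test: formulated compounds sprayed as aqueous suspension or emulsion with 0.5% additive at 600 l/ha onto soil covering sown seeds, at rates corresponding to 320 g/ha or less. After about 3 weeks in greenhouse, efficacy scored visually as percent versus untreated controls (100% = plants dead).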

[5] = test system: Pharbitis purpurea (PHBPU); assay: C. Herbicidal pre-emergence efficacy, PHBPU; settings: scored after about 3 weeks
Excerpt: Seeds of monocotyledonous and dicotyledonous weed plants and crop plants were placed in plastic or organic planting pots and covered with soil. The compounds of the invention, formulated in the form of wettable powders (WP) or as emulsion concentrates (EC), were then applied to the surface of the covering soil as aqueous suspension or emulsion with addition of 0.5% additive at a water application rate equivalent to 600 l/ha (converted). After the treatment, the pots were placed in a greenhouse and kept under good growth conditions for the test plants. After about 3 weeks, the efficacy of the preparations was scored visually in comparison with untreated controls as percentages. For example, • 100% efficacy=plants have died, • 0% efficacy=like untreated control plants.
Tables C1a to C14b below show the effects of selected compounds of the general formula (I) according to table 1 on various harmful plants at an application rate corresponding to 320 g/ha or less, which were obtained by the experimental procedure mentioned above.

[6] = test system: Alopecurus myosuroides (ALOMY); assay: E. Herbicidal post-emergence efficacy, ALOMY
Protocol: (§5) Seeds of monocotyledonous and dicotyledonous weeds and crop plants were placed in sandy loam in plastic or organic planting pots, covered with soil and cultivated in a greenhouse under controlled growth conditions. 2 to 3 weeks after sowing, the test plants were treated at the one-leaf stage. The compounds of the invention, formulated in the form of wettable powders (WP) or as emulsion concentrates (EC), were then sprayed onto the green parts of the plants as aqueous suspension or emulsion with addition of 0.5% additive at a water application rate of 600 l/ha (converted). After the test plants had been kept in the greenhouse under optimum growth conditions for about 3 weeks, the activity of the preparations was rated visually in comparison to untreated controls.
(§6) For example, • 100% efficacy=plants have died, • 0% action=like untreated control plants.
(§7) Tables E1a to E12b below show the effects of selected compounds of the general formula (I) according to table 1 on various harmful plants at an application rate corresponding to 320 g/ha or less, which were obtained by the experimental procedure mentioned above.

Zea mays (ZEAMX) = assay: D. Pre-emergence effect on useful plants, ZEAMX; settings: useful plant
Outline: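 Seeds sown in pots and covered with soil; WP or EC formulations sprayed on the soil surface as aqueous suspension/emulsion with 0.5% additive at 600 l/ha water. Plants grown in greenhouse; crop damage scored visually after about 3 weeks as % versus untreated controls (100% = dead, 0% = like control).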

[7] = test system: Digitaria sanguinalis (DIGSA); assay: E. Herbicidal post-emergence efficacy, DIGSA
Protocol: as §5, §6, §7

[8] = pre-emergence, dosage 1280 g/ha
[9] = 320 g/ha, scored visually after about 3 weeks vs untreated controls

Pre-emergence efficacy against ZEAMX in % (Zea mays (ZEAMX); application rate 80 g/ha) [%] | Pre-emergence efficacy against ZEAMX in % (Zea mays (ZEAMX); application rate 320 g/ha) [%] | SMILES | Pre-emergence efficacy against ECHCG ([1]; 80 g/ha) [%] | Pre-emergence efficacy against ECHCG ([1]; 320 g/ha) [%] | Pre-emergence efficacy against ECHCG ([1]; 1280 g/ha) [%] | Pre-emergence efficacy against MATIN [2, 8] [%] | Post-emergence efficacy against ALOMY in % ([3]; 320 g/ha) [%] | Post-emergence efficacy against ALOMY in % ([3]; 1280 g/ha) [%] | Post-emergence efficacy against LOLRI (Lolium rigidum (LOLRI); 1280 g/ha) [%] | Pre-emergence efficacy against MATIN ([4]; 320 g/ha) [%] | Pre-emergence efficacy against PHBPU ([5]; 320 g/ha) [%] | Post-emergence efficacy against ALOMY in % ([6]; application rate 320 g/ha) [%] | Pre-emergence efficacy against MATIN [2, 9] [%] | Post-emergence efficacy against ALOMY in % ([6]; application rate 80 g/ha) [%] | Pre-emergence efficacy against MATIN ([4]; 80 g/ha) [%] | Post-emergence efficacy against DIGSA in % ([7]; application rate 80 g/ha) [%] | Post-emergence efficacy against DIGSA in % ([7]; application rate 320 g/ha) [%] | Post-emergence efficacy against LOLRI (Lolium rigidum (LOLRI); 320 g/ha) [%] | Pre-emergence efficacy against PHBPU ([5]; 80 g/ha) [%]
 |  | O=S(=O)(CCCCl)Oc1ccccc1Oc1ncc(Cl)cn1 [Example I-2] | 90 | 100 | 100 | 100 | 90 | 90 | 90 | 100 | 90 | 90 |  |  |  |  |  |  | 
20 |  | O=S(=O)(CCCCl)Oc1ccccc1Oc1ncc(F)cn1 [Example I-5] |  | 100 | 100 | 100 |  | 100 |  | 90 | 80 | 90 | 90 | 80 |  |  |  |  | 
 |  | O=S(=O)(CCC(F)(F)F)Oc1ccccc1Oc1ncc(Cl)cn1 [Example I-8] | 90 | 90 | 100 | 100 |  |  | 90 | 80 | 80 | 90 | 90 |  | 80 | 80 | 90 |  | 
 |  | O=S(=O)(CCCC(F)(F)F)Oc1ccccc1Oc1ncc(Cl)cn1 [Example I-10] | 100 | 100 | 100 | 100 |  |  | 100 | 100 | 100 | 100 | 100 | 90 | 90 | 90 | 90 | 90 | 100
20 |  | Cc1cccc(OS(=O)(=O)CCCCl)c1Oc1ncc(Cl)cn1 [Example I-12] |  | 90 | 100 | 100 |  |  | 90 |  |  |  | 90 |  |  |  |  | 90 | 
 |  | O=S(=O)(CCCCl)Oc1c(F)cccc1Oc1ncc(Cl)cn1 [Example I-14] | 100 | 100 | 100 | 100 | 100 | 100 | 100 |  |  | 90 |  |  |  |  |  |  | 
 |  | O=S(=O)(CCCCCl)Oc1ccccc1Oc1ncc(Cl)cn1 [Example I-15] | 100 | 100 | 100 |  |  |  | 90 |  | 90 |  |  |  |  | 80 | 90 | 90 | 
0 |  | O=S(=O)(CC1CC1)Oc1ccccc1Oc1ncc(Cl)cn1 [Example I-23] | 90 | 90 | 90 | 100 | 90 | 90 |  | 100 | 80 | 80 | 90 |  |  |  | 100 |  | 
0 | 0 | CCCCCS(=O)(=O)Oc1ccccc1Oc1ncc(Cl)cn1 [Example I-24] |  | 100 | 100 |  |  |  | 90 |  |  |  |  |  |  |  |  |  | 
0 |  | CC(C)CCS(=O)(=O)Oc1ccccc1Oc1ncc(Cl)cn1 [Example I-25] |  | 100 | 100 | 100 |  |  | 90 |  |  |  |  |  |  |  |  |  | 
 |  | O=S(=O)(CCC(F)(F)F)Oc1c(Cl)cccc1Oc1ncc(Br)cn1 [Example I-32] |  |  | 100 | 90 |  | 90 | 90 | 80 |  |  |  |  |  |  | 90 |  | 
 |  | O=S(=O)(CCC(F)(F)F)Oc1c(Cl)cccc1Oc1ncc(Cl)cn1 [Example I-38] |  | 90 | 100 | 100 |  |  | 90 | 80 |  | 80 | 100 |  | 80 |  | 90 |  | 
 |  | O=S(=O)(CCCC(F)(F)F)Oc1c(F)cccc1Oc1ncc(Br)cn1 [Example I-41] |  | 100 | 100 | 100 |  | 90 | 90 |  | 100 | 100 | 100 |  |  | 100 | 100 |  | 80
 |  | O=S(=O)(CCCC(F)(F)F)Oc1c(F)cccc1Oc1ncc(Cl)cn1 [Example I-49] | 90 | 90 | 90 | 100 |  | 90 | 90 | 100 | 100 | 80 | 100 |  | 80 | 90 | 100 |  | 90
0 |  | COCCS(=O)(=O)Oc1c(F)cccc1Oc1ncc(Cl)cn1 [Example I-52] |  | 90 | 90 | 90 |  |  | 90 |  |  |  |  |  |  |  |  |  | 
 |  | O=S(=O)(CC1CC(F)(F)C1)Oc1c(F)cccc1Oc1ncc(Cl)cn1 [Example I-53] | 100 | 100 | 100 | 100 | 90 | 90 | 90 | 90 | 100 | 100 |  | 90 |  | 90 | 90 |  | 100
 |  | O=S(=O)(CCC(F)=C(F)F)Oc1c(Cl)cccc1Oc1ncc(Cl)cn1 [Example I-73] |  |  | 90 |  |  | 90 | 90 |  |  |  |  |  |  |  |  |  | 
0 |  | Cc1cccc(Oc2ncc(Cl)cn2)c1OS(=O)(=O)CC1CC(F)(F)C1 [Example I-74] |  | 90 | 100 |  |  | 90 | 100 |  |  |  |  |  |  |  |  |  | 
